In PubChem BioAssay (NCI) one finds GI50 and TGI data, which are given here for 15 compounds.

The structures appear in SMILES notation. Several values for one entry are separate records, joined by “and”; a condition that tells them apart may be missing. Equal values may be shown once.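 Assay format: 96-well plates, 48-hour exposure. Abbreviation: GI50, concentration required for 50% inhibition of growth. TGI denotes the concentration required for complete inhibition of growth.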

Common to all, as to test: NCI-60 cell line screen, 48 h
For experiment [1], the system named is OVCAR-3 ovarian.
In experiment [2] the test system is OVCAR-8 ovarian.
Experiment [3] relates to NCI-H226 lung.
Experiment [4] has as its system LOX IMVI melanoma.
Experiment [5] relates to CCRF-CEM leukemia.
In experiment [6] the test system is HOP-62 NSCLC.
Experiment [7] deals with SN12C renal.
Experiment [8] deals with A498 renal.

In the case of `CCOC1Oc2ccc(C)cc2C(=O)/C1=C\Nc1ccc(C(N)=O)cc1` (configuration not stated), the GI50 is 18.8 µM in experiment [1]; 17.7 µM in experiment [2]; 24.3 µM in experiment [3]; 13.9 µM in experiment [4]; 20.3 µM in experiment [5]; 17.6 µM in experiment [6]. Moreover, the GI50 in experiment [7] is 17.6 µM. The TGI was 46.8 µM in experiment [1]; 40.3 µM in experiment [2]; 50.7 µM in experiment [3]; 34.4 µM in experiment [4]; 65.3 µM in experiment [5]; 33.7 µM in experiment [6]. This compound returned a TGI in experiment [7] of 38.8 µM.

On to `CCOC(=O)/C(C#N)=C/c1[nH]c(C(=O)OCc2ccccc2)c(C)c1C`, for which the TGI in experiment [1], in experiment [2], in experiment [4], in experiment [5], in experiment [6] and in experiment [7] was > 100 µM in each case.

As to `O=C(Nc1ccc(-c2nc(N3CCOCC3)c3cccn3n2)cc1)Nc1cccnc1`, the GI50 is 0.152 µM in experiment [1]; 0.0491 µM in experiment [2]; 0.141 µM in experiment [3]; 0.0475 µM in experiment [8]; 0.0547 µM in experiment [5]; 0.336 µM in experiment [6]. Moreover, the TGI is 1.06 µM in experiment [1]; > 100 µM in experiment [2]; 1.1 µM in experiment [3]; 0.328 µM in experiment [8]; > 100 µM in experiment [5]; > 100 µM in experiment [6].

Take `CN(C)CCNC(=O)c1cccc2ccc(-c3ccncc3)nc12`: the TGI was 14.4 µM in experiment [1]; > 100 µM in experiment [2]; 4.34 µM in experiment [8]; 15.5 µM in experiment [5]; 5.56 µM in experiment [6]; 15.4 µM in experiment [7].

Take `O=C(CC1C(=O)NN(c2ccc(Br)cc2)C1=O)c1cc(O)ccc1O` (configuration not stated): the GI50 in experiment [1] was 7.41 µM; in experiment [2], 18.4 µM; in experiment [3] it was 10.4 µM; in experiment [4] it was 8.3 µM; in experiment [8], > 50 µM; in experiment [5] it was > 50 µM. Also, the GI50 in experiment [7] was 13.6 µM. Moreover, the TGI in experiment [1] was 21.7 µM; in experiment [2] it was > 50 µM; in experiment [3], 36.9 µM; in experiment [4], 19.5 µM; in experiment [8], > 50 µM; in experiment [5], > 50 µM. This compound also had a TGI in experiment [7] of 40.3 µM.

Take `Cc1ccc(NC(=O)CC(=O)n2nc(C)c(N=Nc3ccccc3C(=O)O)c2C)cc1`: the TGI in experiment [1], in experiment [2], in experiment [4], in experiment [8], in experiment [5] and in experiment [6] was > 100 µM in each case. In experiment [7], the TGI was > 100 µM.

As for `NC12CC3CC(C1)CC(C(=O)O)(C3)C2`, the TGI in experiment [1], in experiment [2], in experiment [4], in experiment [8], in experiment [5] and in experiment [6] was > 100 µM throughout. For the same compound, the TGI in experiment [7] was > 100 µM.

As for `CC(SC(=S)N1CCOCC1)c1cc2oc(=O)n(C)c2cc1Cl` (configuration not stated), the TGI in experiment [1], in experiment [2], in experiment [4], in experiment [5], in experiment [6] and in experiment [7] was > 100 µM throughout.

With `CCC[CH2][Sn]1([CH2]CCC)[O]C(=O)CN=Cc2c(ccc3ccccc23)[O]1`, the GI50 is 0.706 µM in experiment [1]; > 100 µM in experiment [2]; 0.242 µM in experiment [4]; 1.55 µM in experiment [8]; 3.91 µM in experiment [6]; 0.374 µM in experiment [7]. Further, the TGI in experiment [1] was 1.95 µM; in experiment [2], > 100 µM; in experiment [4] it was 0.827 µM; in experiment [8], > 100 µM; in experiment [6] it was > 100 µM; in experiment [7], 1.39 µM.

Turning to `CCCC1N2CCCCC2[C@@H]2c3[nH]c4ccccc4c3CCN12` (some centres not stated), the TGI in experiment [1], in experiment [2], in experiment [8], in experiment [5], in experiment [6] and in experiment [7] was > 100 µM each time.

For the compound `C/C(CC(=O)Nc1cc(C)ccc1C)=N\NC(=O)c1ccncc1`, the TGI in experiment [1], in experiment [2], in experiment [3], in experiment [4], in experiment [5] and in experiment [6] was > 100 µM throughout.

On to `CC(=O)O[C@H]1C(=O)[C@@]2(C)C(C(OC(=O)c3ccccc3)[C@]3(O)CC(OC(=O)[C@H](OC(=O)CCC(=O)O)C(NC(=O)c4ccccc4)c4ccccc4)C(C)=C1C3(C)C)C1(OC(C)=O)COC1C[C@@H]2O` (some centres not stated), for which the TGI in experiment [1] is 1.76 µM and 0.459 µM; in experiment [2], > 100 µM; in experiment [3], > 100 µM; in experiment [4], > 100 µM; in experiment [5], 0.658 µM and 1.57 µM; in experiment [6], > 100 µM. Also, the TGI in experiment [7] is > 100 µM. In addition, the GI50 in experiment [2] is 0.0159 µM and 0.038 µM; in experiment [6] it was < 0.0175 µM and 0.0835 µM; in experiment [7], < 0.01 µM and 0.0287 µM.

Take `COc1cc(Nc2nc3ccccc3nc2-c2cccs2)cc(OC)c1OC`: the TGI in experiment [1] is > 100 µM; in experiment [2], > 10 µM; in experiment [3], > 100 µM; in experiment [4] it was > 100 µM; in experiment [5], > 100 µM; in experiment [6], > 100 µM. Moreover, the TGI in experiment [7] is > 100 µM.

For `N#CSC1CCCCNC1=O` (configuration not stated), the TGI in experiment [1] is 29.5 µM; in experiment [2] it was 33.6 µM; in experiment [3] it was 25.7 µM; in experiment [4] it was > 100 µM; in experiment [5], 34.8 µM; in experiment [6], 41.8 µM. Further, the TGI in experiment [7] was found to be 30.8 µM.

Take `COc1ccc2c(c1)CCCN2c1c2ccccc2nc2ccccc12`: the GI50 is 0.275 µM in experiment [1]; 0.481 µM in experiment [2]; 0.505 µM in experiment [4]; 0.269 µM in experiment [8]; 0.353 µM in experiment [5]; 0.73 µM in experiment [7]. Besides, the TGI was 0.75 µM in experiment [1]; > 100 µM in experiment [2]; 12.1 µM in experiment [4]; 0.808 µM in experiment [8]; 71.6 µM in experiment [5]; > 100 µM in experiment [7].
